Measured values published in patent US11999806B2, “Broad-spectrum polypeptide against enterovirus and application thereof” (WUHAN INSTITUTE OF VIROLOGY, CHINESE ACADEMY OF SCIENCES, priority 2018, dated 2024).
Where “and” joins values, the source holds several entries; their conditions need not be identical. Equal entries are not always repeated. Non-standard residues stand in square brackets, D forms with d. Residues, ends and D or L forms follow the SMILES beside them. No end group written: not given here.

Columns and labels:
[1] = Cytotoxicity by CCK-8 in Vero cells; format: cell-based; settings: 24 h, read-out: Cell viability (%)
Method: (§1) The experiment was performed as follows. • (1) Vero cells were plated in a 96-well plate at 100 μl per well. • (2) After the cells reached 70%-80% confluence, the MEM medium containing 10% serum was replaced with a MEM medium containing 2% serum. Then, polypeptide BP8, BP10 or BP15 was added to generate gradient concentrations of […], […], 12.5 μM, 25 μM, 50 μM, 100 μM, and 200 μM (final concentrations), respectively. • (3) The samples were collected 24 hours after the addition of the polypeptide, and 10 μl of live cell detection reagent CCK-8 was added to each well and mixed well. • (4) The plate was placed at 37° C. for 4 h. • (5) The absorbance value at OD450 was measured with a microplate reader.

Vero cells = assay: Cytotoxicity by CCK-8 in Vero cells; format: cell-based; settings: for Cell viability (%): 24 h
Method: as §1

CVB3 = assay: Anti-CVB3 effect in Vero cells, qRT-PCR; format: cell-based, Coxsackievirus B3; settings: text of Example 21, read-out: IC50 against CVB3
Method: • (1) Vero cells were plated in a 24-well cell plate. • (2) After the cells reached 70%-80% confluence, the MEM medium containing 10% serum was replaced with a MEM medium containing 2% serum and CVB3 virus, 0.5 ml per well. MOI of the virus was 0.01. […]

EV71 [2] = assay: Anti-EV71 efficiency in Vero cells, viral RNA by qRT-PCR; format: cell-based, enterovirus 71; settings: read-out: IC50 against EV71 by qRT-PCR
Excerpt: […]

EV71 [3] = assay: Antiviral activity against EV71 in mice, virus copies in lung by qRT-PCR; format: in vivo, ICR mice
Excerpt: • (1) 10 2-day-old ICR mice were randomly divided into two groups, 5 in each group.

[4] = 20 mg/kg i.p. once daily for 3 days
Excerpt: • (1) A total of 12 10-day-old suckling mice were randomly divided into two groups, 6 in each group.

With YGRKKRRQRRRGSGEAVREYCK [BP8] the viability at 24 h, 3.0625 µM ([1]; 3.0625 μM) was 103%, the viability at 24 h, 6.125 µM ([1]; 6.125 μM) was 101% and the viability at 24 h, 12.5 µM ([1]; 12.5 μM) was 95.5%. For the same compound, the viability at 24 h, 25 µM ([1]; 25 μM) was 96.6%, the viability at 24 h, 50 µM ([1]; 50 μM) was 94.4% and the viability at 24 h, 100 µM ([1]; 100 μM) was 99.7%. The viability at 24 h, 200 µM ([1]; 200 μM) was 87.2%, the “Cell viability (%)” value (Vero cells; 3.0625 μM) was 105.2007% and 108.7417% and the “Cell viability (%)” value (Vero cells; 6.125 μM) was 111.3814% and 119.3004%. The “Cell viability (%)” value (Vero cells; 12.5 μM) was 106.8102% and 109.1924%, the “Cell viability (%)” value (Vero cells; 25 μM) was 99.47% and 113.6348% and the “Cell viability (%)” value (Vero cells; 50 μM) was 108.2266% and 112.4759%. The “Cell viability (%)” value (Vero cells; 100 μM) was 96.7% and 97.35%, the “Cell viability (%)” value (Vero cells; 200 μM) was 92.0023% and 92.52% and the “cytotoxicity, result in words” value (Vero cells; CCK-8, 24 h) was “not toxic to cells within 200 μM”. It also gave an IC50 (CVB3) of 4.12 µM.

Work on RRRRRRRREEVRQYCRDQ [P2] yielded an IC50 (EV71 [2]) of 1.96 µM.

In the case of `CC(=O)N[C@H](CCCNC(=N)N)C(=O)N[C@H](CS)C(=O)N[C@H](Cc1ccc(O)cc1)C(=O)N[C@H](CCC(N)=O)C(=O)N[C@H](CCCNC(=N)N)C(=O)N[C@@H](C(=O)N[C@H](CCC(=O)O)C(=O)N[C@H](CCC(=O)O)C(=O)N1CCC[C@@H]1C(=O)N1CCC[C@@H]1C(=O)N[C@H](CCCNC(=N)N)C(=O)N[C@H](CCCNC(=N)N)C(=O)N[C@H](CCCNC(=N)N)C(=O)N[C@H](CCC(N)=O)C(=O)N[C@H](CCCNC(=N)N)C(=O)N[C@H](CCCNC(=N)N)C(=O)N[C@H](CCCCN)C(=O)N[C@H](CCCCN)C(=O)N[C@H](CCCNC(=N)N)C(=O)NCC(=O)N[C@H](Cc1ccc(O)cc1)C(N)=O)C(C)C` [ER-DRI] (Ac-[dR][dC][dY][dQ][dR][dV][dE][dE][dP][dP][dR][dR][dR][dQ][dR][dR][dK][dK][dR]G[dY]-NH2), the “EV71 viral load in mouse lung, in words” value (EV71 [3]; 10 mg/kg i.p. every 12 h for 5 days vs PBS) is reported as “can significantly reduce the viral load of EV71 in the mouse lung”, the “Number of virus copy in lung tissue (Copies/g)” value (EV71 [3]; 2-day-old ICR mice, EV71 i.p., 10 mg/kg i.p. every 12 h for 5 days, individual animals, 10 mg/kg) is reported as 294534 Copies/g and 484192 Copies/g and 2956937 Copies/g and 549759 Copies/g and 116302 Copies/g and the “HE staining of brain, liver, lung and kidney, in words” value ([4]; four weeks after administration) is reported as “no significant pathological change in the brain, liver, lung and kidney”. For the same compound, the “body weight vs PBS group, in words” value ([4]; 10-day-old suckling mice, weight recorded 15 days) was “no significant difference in body weight”.
